From article PMC4331650 (Biochimica et Biophysica Acta, 2014)
Positions count from the first letter of the chain named.

Columns and labels:
Assay type in all cases: cell-based
N257A CLC-Ka [1] = target: T1, N257A CLC-Ka (Homo sapiens, UniProt P51800, N257A); conditions: 4 μM NFAext in the presence of 100 μM CPAint; −100 mV and 60 mV
T1 sequence (P51800 1-687 N257A): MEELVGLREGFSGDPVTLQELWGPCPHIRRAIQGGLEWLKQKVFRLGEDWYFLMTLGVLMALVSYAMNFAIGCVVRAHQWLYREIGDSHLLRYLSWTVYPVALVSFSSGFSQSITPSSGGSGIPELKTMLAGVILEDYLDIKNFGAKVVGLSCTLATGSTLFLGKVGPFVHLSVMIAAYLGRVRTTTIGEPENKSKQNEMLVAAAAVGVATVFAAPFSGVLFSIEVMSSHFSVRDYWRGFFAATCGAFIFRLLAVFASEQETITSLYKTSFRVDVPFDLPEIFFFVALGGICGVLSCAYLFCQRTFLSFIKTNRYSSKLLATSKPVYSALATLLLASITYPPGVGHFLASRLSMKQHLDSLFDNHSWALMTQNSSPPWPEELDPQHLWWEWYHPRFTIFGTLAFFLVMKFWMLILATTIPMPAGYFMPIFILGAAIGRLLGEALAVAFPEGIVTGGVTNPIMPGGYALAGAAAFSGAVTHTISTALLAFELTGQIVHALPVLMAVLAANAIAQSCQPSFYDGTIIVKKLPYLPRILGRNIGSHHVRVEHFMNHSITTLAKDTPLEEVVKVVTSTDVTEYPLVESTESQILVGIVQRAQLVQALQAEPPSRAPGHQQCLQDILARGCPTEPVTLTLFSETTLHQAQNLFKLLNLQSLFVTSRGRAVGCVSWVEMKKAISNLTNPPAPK
T1 sequence (Q8WZ55 1-320 Y98A partner): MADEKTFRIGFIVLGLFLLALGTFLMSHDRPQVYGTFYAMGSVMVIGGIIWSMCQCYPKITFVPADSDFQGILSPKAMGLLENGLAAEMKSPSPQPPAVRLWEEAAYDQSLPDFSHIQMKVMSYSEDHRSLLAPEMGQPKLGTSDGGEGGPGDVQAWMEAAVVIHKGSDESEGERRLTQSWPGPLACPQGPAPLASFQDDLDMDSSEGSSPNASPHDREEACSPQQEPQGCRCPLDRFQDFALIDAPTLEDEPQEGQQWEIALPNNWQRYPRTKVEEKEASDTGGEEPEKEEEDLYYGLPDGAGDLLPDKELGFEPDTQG

F256A CLC-Ka = target: T2, F256A CLC-Ka (Homo sapiens, UniProt P51800, F256A); test: NFA modulation of F256A CLC-Ka currents, voltage clamp in Xenopus oocytes
T2 sequence (P51800 1-687 F256A): T1 sequence (P51800 1-687 N257A) with F256A, A257N
T2 sequence (Q8WZ55 1-320 Y98A partner): T1 sequence (Q8WZ55 1-320 Y98A partner)

WT CLC-Ka = target: T3, WT CLC-Ka (Homo sapiens, UniProt P51800); test: NFA modulation of WT CLC-Ka currents, voltage clamp in Xenopus oocytes
T3 sequence (P51800 1-687): T1 sequence (P51800 1-687 N257A) with A257N
T3 sequence (Q8WZ55 1-320 Y98A partner): T1 sequence (Q8WZ55 1-320 Y98A partner)

N257A CLC-Ka [2] = target: T1, N257A CLC-Ka; test: NFA effect on N257A CLC-Ka currents, voltage clamp in Xenopus oocytes
[3] = at 500 μM NFA, currents at 60 mV normalized to 0 NFA

effect of NFA on single channel conductance (N257A CLC-Ka [1]): does not affect the conductance
potentiation of currents (F256A CLC-Ka; 2 μM NFA): two-fold
current increase (F256A CLC-Ka; 200 μM NFA, F256A CLC-Ka in Xenopus oocytes): ~ 25 fold
effect of NFA on currents (F256A CLC-Ka; all concentrations tested, from 1 to 2000 μM): potentiated
maximal stimulation (potentiation) of currents (F256A CLC-Ka; [3]): 37 fold
current increase (WT CLC-Ka; 200 μM NFA, WT CLC-Ka in Xenopus oocytes): 3 fold
effect of NFA on currents (WT CLC-Ka; [NFA]ext > 500 μM): inhibited
maximal stimulation of currents (WT CLC-Ka; [3]): 4 fold
effect of NFA on currents (WT CLC-Ka; very low [NFA]ext): not changed
effect of NFA on currents (N257A CLC-Ka [2]; all [NFA]ext tested, from 1 to 2000 μM): only blocked
inhibition at 5 µM (N257A CLC-Ka [2]; read-out: inhibition of currents): ~90%
Compound: O=C(O)c1cccnc1Nc1cccc(C(F)(F)F)c1 [NFA, niflumic acid]
